Test results: patent publication US20200095236A1, “ANTIBACTERIAL COMPOUNDS” (FORGE THERAPEUTICS, INC., priority 2017, published 2020)

Columns and labels:
E. coli LpxC = E. coli LpxC (Escherichia coli, UniProt P0A725); assay: LpxC Binding Assay (Rapid Fire MS assay); type: biochemical
[1] = system: TLR-4 activity of A. baumannii culture supernatants; assay: TLR4 assay: TLR4 activity of A. baumannii culture supernatants in HEK-Blue-hTLR4 cells; type: cell-based; conditions: Acinetobacter baumannii, HEK-Blue hTLR4, read-out: % TLR-4 activity
Experimental: The TLR4 assay measures activity of diluted filter-sterilized A. baumannii culture supernatants. The assay was performed as described in Lin et al, Mbio, 2012. Briefly, A. baumannii was passaged to mid log-phase in the presence of Forge LpxC inhibitors. Culture supernatants were harvested, filter-sterilized and diluted 1:1000. TLR4 activity of the supernatants was tested using HEK-Blue-hTLR4 cells (Invivogen) that carry NF-kB and AP-1 driven SEAP (secreted embryonic alkaline phosphatase) reporter gene.
Exemplary TLR4 assay data (% TLR-4 activity) for compounds in embodiments of the disclosure.

Sequence of E. coli LpxC (P0A725 whole entry): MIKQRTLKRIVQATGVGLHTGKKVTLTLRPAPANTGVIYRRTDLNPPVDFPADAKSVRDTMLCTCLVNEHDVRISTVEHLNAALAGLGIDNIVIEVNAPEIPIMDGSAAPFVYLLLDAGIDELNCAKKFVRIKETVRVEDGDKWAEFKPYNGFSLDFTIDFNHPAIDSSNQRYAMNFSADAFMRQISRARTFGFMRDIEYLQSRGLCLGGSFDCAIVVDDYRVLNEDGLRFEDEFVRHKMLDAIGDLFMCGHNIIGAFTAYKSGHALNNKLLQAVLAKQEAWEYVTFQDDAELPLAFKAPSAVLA

Row | Molecule | IC50 (E. coli LpxC) | activity at 4 µg/mL [1] | activity at 8 µg/mL [1] | activity at 16 µg/mL [1]
1 | CS(=O)(=O)NCC(Cc1ccc(C#Cc2ccc(CN3CCOCC3)cc2)cc1)c1nc[nH]c(=O)c1O (stereo not drawn) [Compound 80, N-(2-(5-hydroxy-6-oxo-1,6-dihydropyrimidin-4-yl)-3-(4-((4-(morpholinomethyl)phenyl)ethynyl)phenyl)propyl) methanesulfonamide] | 100 to 1000 nM |  |  | 
2 | O=c1[nH]cnc(CCc2ccc(C#Cc3ccc(CNC4CC(O)C4)cc3)cc2)c1O (stereo not drawn) [Compound 243, 5-hydroxy-6-(4-((4-(((3-hydroxycyclobutyl)amino)methyl)phenyl)ethynyl)phenethyl)pyrimidin-4(3H)-one] | 10 to 50 nM |  |  | 
3 | O=c1[nH]cnc(C(CNCCF)Cc2ccc(C#Cc3ccc(CN4CC5CCC(C4)O5)cc3)cc2)c1O (stereo not drawn) [Compound 215, 6-(1-(4-((4-((8-oxa-3-azabicyclo[3.2.1]octan-3-yl)methyl)phenyl)ethynyl)phenyl)-3-((2-fluoroethyl)amino)propan-2-yl)-5-hydroxypyrimidin-4(3H)-one] | 100 to 1000 nM | 20 to 50% | 20 to 50% | < 20%
4 | O=c1[nH]cnc(CCc2ccc(C#Cc3ccc(CN4CCOCC4)cc3)c(F)c2)c1O [Compound 98, 6-(3-fluoro-4-((4-(morpholinomethyl)phenyl)ethynyl)phenethyl)-5-hydroxypyrimidin-4(3H)-one] | < 10 nM |  |  | 
5 | COCCNC(=O)C(Cc1ccc(C#Cc2ccc(CN3CCOCC3)cc2)cc1)c1nc[nH]c(=O)c1O (stereo not drawn) [Compound 153, 2-(5-hydroxy-6-oxo-1,6-dihydropyrimidin-4-yl)-N-(2-methoxyethyl)-3-(4-((4-(morpholinomethyl)phenyl)ethynyl)phenyl) propanamide] | 10 to 50 nM | > 80% | 50 to 80% | < 20%
6 | O=C(NC1CC(F)(F)C1)C(Cc1ccc(C#Cc2ccc(CN3CCOCC3)cc2)cc1)c1nc[nH]c(=O)c1O (stereo not drawn) [Compound 154, N-(3,3-difluorocyclobutyl)-2-(5-hydroxy-6-oxo-1,6-dihydropyrimidin-4-yl)-3-(4-((4-(morpholinomethyl)phenyl)ethynyl)phenyl) propanamide] | 50 to 100 nM |  |  | 
7 | COC1CN(Cc2ccc(C#Cc3ccc(CC(C(=O)NCC(F)F)c4nc[nH]c(=O)c4O)cc3)cc2)C1 (stereo not drawn) [Compound 109, N-(2,2-difluoroethyl)-2-(5-hydroxy-6-oxo-1,6-dihydropyrimidin-4-yl)-3-(4-((4-((3-methoxyazetidin-1-yl)methyl)phenyl)ethynyl)phenyl) propanamide] | 10 to 50 nM |  |  | 
8 | CO[C@H]1CCN(Cc2ccc(C#Cc3ccc(CC(C(=O)NCC(F)F)c4nc[nH]c(=O)c4O)cc3)cc2)C1 (stereo partly drawn) [Compound 105, N-(2,2-difluoroethyl)-2-(5-hydroxy-6-oxo-1,6-dihydropyrimidin-4-yl)-3-(4-((4-(((S)-3-methoxypyrrolidin-1-yl)methyl)phenyl)ethynyl)phenyl) propanamide] | 50 to 100 nM |  |  | 
9 | O=c1[nH]cnc(C(CNCCF)Cc2ccc(C#Cc3ccc(CNC4CCOC4)cc3)cc2)c1O (stereo not drawn) [Compound 198, 6-(1-((2-fluoroethyl)amino)-3-(4-((4-(((tetrahydrofuran-3-yl)amino)methyl)phenyl)ethynyl)phenyl)propan-2-yl)-5-hydroxypyrimidin-4(3H)-one] | 100 to 1000 nM |  |  | 
10 | O=C1CCCN1Cc1ccc(C#Cc2ccc(CC(CNCCF)c3nc[nH]c(=O)c3O)cc2)cc1 (stereo not drawn) [Compound 55, 6-(1-((2-fluoroethyl)amino)-3-(4-((4-((2-oxopyrrolidin-1-yl)methyl)phenyl)ethynyl)phenyl)propan-2-yl)-5-hydroxypyrimidin-4(3H)-one] | 10 to 50 nM | > 80% | 20 to 50% | 20 to 50%
11 | N#CC1CN(Cc2ccc(C#Cc3ccc(CC(CNCCF)c4nc[nH]c(=O)c4O)cc3)cc2)C1 (stereo not drawn) [Compound 209, 1-(4-((4-(3-((2-fluoroethyl)amino)-2-(5-hydroxy-6-oxo-1,6-dihydropyrimidin-4-yl)propyl)phenyl)ethynyl)benzyl) azetidine-3-carbonitrile] | 10 to 50 nM |  |  | 
12 | O=c1[nH]cnc(C(CNCC(F)F)Cc2ccc(C#Cc3ccc(CN4CCOCC4)cc3)cc2)c1O (stereo not drawn) [Compound 57, 6-(1-((2,2-difluoroethyl)amino)-3-(4-((4-(morpholinomethyl)phenyl)ethynyl)phenyl)propan-2-yl)-5-hydroxypyrimidin-4(3H)-one] | 100 to 1000 nM | > 80% | 50 to 80% | 20 to 50%
13 | N#CC1CN(Cc2ccc(C#Cc3ccc(CC(C(=O)NCC(F)F)c4nc[nH]c(=O)c4O)cc3)cc2)C1 (stereo not drawn) [Compound 149, 3-(4-((4-((3-cyanoazetidin-1-yl)methyl)phenyl)ethynyl)phenyl)-N-(2,2-difluoroethyl)-2-(5-hydroxy-6-oxo-1,6-dihydropyrimidin-4-yl)propanamide] | < 10 nM |  |  | 
14 | N#CCC1CCN(Cc2ccc(C#Cc3ccc(CC(C(=O)NCC(F)F)c4nc[nH]c(=O)c4O)cc3)cc2)CC1 (stereo not drawn) [Compound 152, 3-(4-((4-((4-(cyanomethyl)piperidin-1-yl)methyl)phenyl)ethynyl)phenyl)-N-(2,2-difluoroethyl)-2-(5-hydroxy-6-oxo-1,6-dihydropyrimidin-4-yl)propanamide] | 100 to 1000 nM |  |  | 
15 | C=CCNCC(Cc1ccc(C#Cc2ccc(CN3CCOCC3)cc2)cc1)c1nc[nH]c(=O)c1O (stereo not drawn) [Compound 56, 6-(1-(allylamino)-3-(4-((4-(morpholinomethyl)phenyl)ethynyl)phenyl)propan-2-yl)-5-hydroxypyrimidin-4(3H)-one] | 10 to 50 nM |  |  | 
16 | N#CC1CN(Cc2ccc(C#Cc3ccc(CC(C(=O)NCCF)c4nc[nH]c(=O)c4O)cc3)cc2)C1 (stereo not drawn) [Compound 165, 3-(4-((4-((3-cyanoazetidin-1-yl)methyl)phenyl)ethynyl)phenyl)-N-(2-fluoroethyl)-2-(5-hydroxy-6-oxo-1,6-dihydropyrimidin-4-yl)propanamide] | < 10 nM |  |  | 
17 | COCCc1ccc(C#Cc2ccc(CC(C(=O)NCC(F)F)c3nc[nH]c(=O)c3O)cc2)cc1 (stereo not drawn) [Compound 114, N-(2,2-difluoroethyl)-2-(5-hydroxy-6-oxo-1,6-dihydropyrimidin-4-yl)-3-(4-((4-(2-methoxyethyl)phenyl)ethynyl)phenyl) propanamide] | 50 to 100 nM |  |  | 
18 | C[C@H]1CN(Cc2ccc(C#Cc3ccc(CC(CNCCF)c4nc[nH]c(=O)c4O)cc3)cc2)C[C@H](C)O1 (stereo partly drawn) [Compound 79, 6-(1-(4-((4-(((2S,6S)-2,6-dimethylmorpholino)methyl)phenyl)ethynyl)phenyl)-3-((2-fluoroethyl)amino)propan-2-yl)-5-hydroxypyrimidin-4(3H)-one] | 100 to 1000 nM |  |  | 
19 | C[C@@H]1CN(Cc2ccc(C#Cc3ccc(CC(CNCCF)c4nc[nH]c(=O)c4O)cc3)cc2)C[C@@H](C)O1 (stereo partly drawn) [Compound 218, 6-(1-(4-((4-(((2R,6R)-2,6-dimethylmorpholino)methyl)phenyl)ethynyl)phenyl)-3-((2-fluoroethyl)amino)propan-2-yl)-5-hydroxypyrimidin-4(3H)-one] | 100 to 1000 nM |  |  | 
20 | CO[C@@H]1CCN(Cc2ccc(C#Cc3ccc(CC(C(=O)NCC(F)F)c4nc[nH]c(=O)c4O)cc3)cc2)C1 (stereo partly drawn) [Compound 106, N-(2,2-difluoroethyl)-2-(5-hydroxy-6-oxo-1,6-dihydropyrimidin-4-yl)-3-(4-((4-(((R)-3-methoxypyrrolidin-1-yl)methyl)phenyl)ethynyl)phenyl) propanamide] | 100 to 1000 nM | 50 to 80% | 50 to 80% | 20 to 50%
21 | O=c1[nH]cnc(C(CNCCF)Cc2ccc(C#Cc3ccc(CO)cc3)cc2)c1O (stereo not drawn) [Compound 195, 6-(1-((2-fluoroethyl)amino)-3-(4-((4-(hydroxymethyl)phenyl)ethynyl)phenyl)propan-2-yl)-5-hydroxypyrimidin-4(3H)-one] | 100 to 1000 nM | 50 to 80% | < 20% | < 20%
22 | Cc1nnc(NCC(Cc2ccc(C#Cc3ccc(CN4CCOCC4)cc3)cc2)c2nc[nH]c(=O)c2O)o1 (stereo not drawn) [Compound 87, 5-hydroxy-6-(1-((5-methyl-1,3,4-oxadiazol-2-yl)amino)-3-(4-((4-(morpholinomethyl)phenyl)ethynyl)phenyl)propan-2-yl)pyrimidin-4(3H)-one] | 50 to 100 nM |  |  | 
23 | O=c1[nH]cnc(C(CNCCF)Cc2ccc(C#Cc3ccc(CNC4COC4)cc3)cc2)c1O (stereo not drawn) [Compound 207, 6-(1-((2-fluoroethyl)amino)-3-(4-((4-((oxetan-3-ylamino)methyl)phenyl)ethynyl)phenyl)propan-2-yl)-5-hydroxypyrimidin-4(3H)-one] | 50 to 100 nM |  |  | 
24 | N-(2,2-difluoroethyl)- 2-(5-hydroxy-6-oxo- 1,6-dihydropyrimidin- 4-yl)-3-(4-((4- (hydroxymethyl) phenyl)ethynyl)phenyl) propanamide [Compound 108] | 10 to 50 nM |  |  | 
